Experiments:
[1] = biological target: MAGL (Mus musculus (Mouse), UniProt O35678); assay: Mouse brain proteomes from inhibitor treated mice (oral gavage, sacrificed 4 h after administration, ABPP analysis); conditions: 5 mg/kg oral gavage
Protocol: (§1) Preparation of Mouse Brain Proteomes from Inhibitor Treated Mice.
(§2) Inhibitors were administered to wild-type C57Bl/6J by oral gavage in a vehicle of polyethylene glycol.

[2] = biological target: FAAH (Mus musculus (Mouse), UniProt O08914); assay: Mouse brain proteomes from inhibitor treated mice (oral gavage, sacrificed 4 h after administration, ABPP analysis), FAAH; conditions: 5 mg/kg oral gavage
FAAH, sequence (O08914 whole entry): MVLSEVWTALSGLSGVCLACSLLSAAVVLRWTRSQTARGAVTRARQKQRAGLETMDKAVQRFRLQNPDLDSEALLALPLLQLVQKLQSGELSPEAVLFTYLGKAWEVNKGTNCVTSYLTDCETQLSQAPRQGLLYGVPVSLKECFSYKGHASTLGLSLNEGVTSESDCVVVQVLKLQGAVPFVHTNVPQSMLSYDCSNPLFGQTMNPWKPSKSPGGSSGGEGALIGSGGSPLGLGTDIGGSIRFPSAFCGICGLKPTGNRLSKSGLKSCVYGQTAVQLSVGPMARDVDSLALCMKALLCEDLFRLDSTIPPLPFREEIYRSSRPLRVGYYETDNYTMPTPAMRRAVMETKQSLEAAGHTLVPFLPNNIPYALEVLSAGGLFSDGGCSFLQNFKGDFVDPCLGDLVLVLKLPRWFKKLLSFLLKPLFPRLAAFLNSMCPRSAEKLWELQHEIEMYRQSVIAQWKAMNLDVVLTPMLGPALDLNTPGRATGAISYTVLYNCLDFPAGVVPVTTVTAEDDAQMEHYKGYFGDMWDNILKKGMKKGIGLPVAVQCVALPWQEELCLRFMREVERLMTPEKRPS
Protocol: as §1, §2

MAGL, sequence (O35678 whole entry): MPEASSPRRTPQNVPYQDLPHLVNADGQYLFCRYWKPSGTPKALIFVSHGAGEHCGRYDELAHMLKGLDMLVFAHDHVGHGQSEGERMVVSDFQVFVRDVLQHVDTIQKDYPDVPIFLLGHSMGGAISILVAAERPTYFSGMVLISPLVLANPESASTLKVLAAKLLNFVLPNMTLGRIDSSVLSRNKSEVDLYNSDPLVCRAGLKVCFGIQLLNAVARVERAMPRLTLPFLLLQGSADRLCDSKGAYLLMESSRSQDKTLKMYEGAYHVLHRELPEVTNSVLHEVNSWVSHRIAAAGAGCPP

## O=C(O)c1ccn(C(=O)N2CCC3(CCCN3Cc3cc(N4CCCC4)cc(C(F)(F)F)c3)CC2)n1 [Example 88, 1-(1-(3-(pyrrolidin-1-yl)-5-(trifluoromethyl)benzyl)-1,8-diazaspiro[4.5]decane-8-carbonyl)-1-1H-pyrazole-3-carboxylic acid]
[1]
  MAGL % inh. 5 mg/kg (mouse): D (% inhibition is greater than or equal to 0% and less than 25%)
[2]
  FAAH % inh. 5 mg/kg (mouse): D (% inhibition is greater than or equal to 0% and less than 25%)

## O=C(O)c1ccn(C(=O)N2CCN(Cc3cccc(C(F)(F)F)c3N3CCCC3)CC2)n1 [Example 90, 1-(4-(2-(pyrrolidin-1-yl)-3-(trifluoromethyl)benzyl)piperazine-1-carbonyl)-1H-pyrazole-3-carboxylic acid]
[1]
  MAGL % inh. 5 mg/kg (mouse): D (% inhibition is greater than or equal to 0% and less than 25%)
[2]
  FAAH % inh. 5 mg/kg (mouse): D (% inhibition is greater than or equal to 0% and less than 25%)

## O=C(O)c1ccn(C(=O)N2CCN(Cc3ccc(C(F)(F)F)cc3Cl)CC2)n1 [Example 91, 1-(4-(2-chloro-4-(trifluoromethyl)benzyl)piperazine-1-carbonyl)-1H-pyrazole-3-carboxylic acid]
[1]
  MAGL % inh. 5 mg/kg (mouse): D (% inhibition is greater than or equal to 0% and less than 25%)
[2]
  FAAH % inh. 5 mg/kg (mouse): D (% inhibition is greater than or equal to 0% and less than 25%)

## O=C(O)c1ccn(C(=O)N2CCN(Cc3ccc(C(F)(F)F)cc3N3CC[C@H](F)C3)CC2)n1 [Example 92, (S)-1-(4-(2-(3-fluoropyrrolidin-1-yl)-4-(trifluoromethyl)benzyl)-piperazine-1-carbonyl)-1H-pyrazole-3-carboxylic acid]
[1]
  MAGL % inh. 5 mg/kg (mouse): D (% inhibition is greater than or equal to 0% and less than 25%)
[2]
  FAAH % inh. 5 mg/kg (mouse): D (% inhibition is greater than or equal to 0% and less than 25%)

## O=C(O)c1ccn(C(=O)N2CCC3(CCCN3Cc3ccc(C(F)(F)F)cc3N3CCCC3)CC2)n1 [Example 93, 1-(1-(2-(pyrrolidin-1-yl)-4-(trifluoromethyl)benzyl)-1,8-diazaspiro[4.5]decane-8-carbonyl)-1H-pyrazole-3-carboxylic acid]
[1]
  MAGL % inh. 5 mg/kg (mouse): D (% inhibition is greater than or equal to 0% and less than 25%)
[2]
  FAAH % inh. 5 mg/kg (mouse): D (% inhibition is greater than or equal to 0% and less than 25%)

## C[C@@H]1CCCN1c1cc(C(F)(F)F)ccc1CN1CCN(C(=O)n2ccc(C(=O)O)n2)CC1 [Example 95, (R)-1-(4-(2-(2-methylpyrrolidin-1-yl)-4-(trifluoromethyl)benzyl)piperazine-1-carbonyl)-1H-pyrazole-3-carboxylic acid]
[1]
  MAGL % inh. 5 mg/kg (mouse): D (% inhibition is greater than or equal to 0% and less than 25%)
[2]
  FAAH % inh. 5 mg/kg (mouse): D (% inhibition is greater than or equal to 0% and less than 25%)

## O=C(O)c1ccn(C(=O)N2CCN(Cc3cccc(Oc4ccc(Cl)cc4)c3)CC2)n1 [Example 98, 1-(4-(3-(4-chlorophenoxy)benzyl)piperazine-1-carbonyl)-1H-pyrazole-3-carboxylic acid]
[1]
  MAGL % inh. 5 mg/kg (mouse): D (% inhibition is greater than or equal to 0% and less than 25%)
[2]
  FAAH % inh. 5 mg/kg (mouse): D (% inhibition is greater than or equal to 0% and less than 25%)

## O=C(O)c1ccn(C(=O)N2CCN(Cc3ccc(C(F)(F)F)cc3N3CCCCC3)CC2)n1 [Example 100, 1-(4-(2-(piperidin-1-yl)-4-(trifluoromethyl)benzyl)piperazine-1-carbonyl)-1H-pyrazole-3-carboxylic acid]
[1]
  MAGL % inh. 5 mg/kg (mouse): D (% inhibition is greater than or equal to 0% and less than 25%)
[2]
  FAAH % inh. 5 mg/kg (mouse): D (% inhibition is greater than or equal to 0% and less than 25%)

## O=C(O)c1ccn(C(=O)N2CCN(Cc3ccc(C(F)(F)F)cc3N3CC[C@@H](F)C3)CC2)n1 [Example 101, (R)-1-(4-(2-(3-fluoropyrrolidin-1-yl)-4-(trifluoromethyl)benzyl)piperazine-1-carbonyl)-1H-pyrazole-3-carboxylic acid]
[1]
  MAGL % inh. 5 mg/kg (mouse): D (% inhibition is greater than or equal to 0% and less than 25%)
[2]
  FAAH % inh. 5 mg/kg (mouse): D (% inhibition is greater than or equal to 0% and less than 25%)

## C[C@H]1CCCN1c1cc(C(F)(F)F)ccc1CN1CCN(C(=O)n2ccc(C(=O)O)n2)CC1 [Example 104, (S)-1-(4-(2-(2-methylpyrrolidin-1-yl)-4-(trifluoromethyl)benzyl)piperazine-1-carbonyl)-1H-pyrazole-3-carboxylic acid]
[1]
  MAGL % inh. 5 mg/kg (mouse): D (% inhibition is greater than or equal to 0% and less than 25%)
[2]
  FAAH % inh. 5 mg/kg (mouse): D (% inhibition is greater than or equal to 0% and less than 25%)

## O=C(O)c1ccn(C(=O)N2CCN(Cc3ccc(Cl)cc3N3C4CCC3COC4)CC2)n1 [Example 105, 1-(4-(2-(3-oxa-8-azabicyclo[3.2.1]octan-8-yl)-4-chlorobenzyl)piper-azine-1-carbonyl)-1H-pyrazole-3-carboxylic acid]
[1]
  MAGL % inh. 5 mg/kg (mouse): D (% inhibition is greater than or equal to 0% and less than 25%)
[2]
  FAAH % inh. 5 mg/kg (mouse): D (% inhibition is greater than or equal to 0% and less than 25%)

## O=C(O)c1ccn(C(=O)N2CCN(Cc3ccc(C(F)(F)F)cc3N3CC4COCC4C3)CC2)n1 (centres unmarked) [Example 106, 1-(4-(2-(tetrahydro-1H-furo[3,4-c]pyrrol-5(3H)-yl)-4-(trifluoromethyl)benzyl)piperazine-1-carbonyl)-1H-pyrazole-3-carboxylic acid]
[1]
  MAGL % inh. 5 mg/kg (mouse): D (% inhibition is greater than or equal to 0% and less than 25%)
[2]
  FAAH % inh. 5 mg/kg (mouse): D (% inhibition is greater than or equal to 0% and less than 25%)

## O=C(O)c1ccn(C(=O)N2CCN(Cc3ccc(Cl)cc3N3CCCC3)CC2)n1 [Example 107, 1-(4-(4-chloro-2-(pyrrolidin-1-yl)benzyl)piperazine-1-carbonyl)-1H-pyrazole-3-carboxylic acid]
[1]
  MAGL % inh. 5 mg/kg (mouse): D (% inhibition is greater than or equal to 0% and less than 25%)
[2]
  FAAH % inh. 5 mg/kg (mouse): D (% inhibition is greater than or equal to 0% and less than 25%)

## CC(C)(O)C1CCN(c2cc(C(F)(F)F)ccc2CN2CCN(C(=O)n3ccc(C(=O)O)n3)CC2)CC1 [Example 109, 1-(4-(2-(4-(2-hydroxypropan-2-yl)piperidin-1-yl)-4-(trifluoromethyl)benzyl)piperazine-1-carbonyl)-1H-pyrazole-3-carboxylic acid]
[1]
  MAGL % inh. 5 mg/kg (mouse): D (% inhibition is greater than or equal to 0% and less than 25%)
[2]
  FAAH % inh. 5 mg/kg (mouse): D (% inhibition is greater than or equal to 0% and less than 25%)

## O=C(O)c1ccn(C(=O)N2CCN(Cc3ccc(Cl)cc3N3CC4COCC4C3)CC2)n1 (centres unmarked) [Example 111, 1-(4-(4-chloro-2-(tetrahydro-1H-furo[3,4-c]pyrrol-5(3H)-yl)benzyl)piperazine-1-carbonyl)-1H-pyrazole-3-carboxylic acid]
[1]
  MAGL % inh. 5 mg/kg (mouse): D (% inhibition is greater than or equal to 0% and less than 25%)
[2]
  FAAH % inh. 5 mg/kg (mouse): D (% inhibition is greater than or equal to 0% and less than 25%)

## NC(=O)C1CCN(c2cc(C(F)(F)F)ccc2CN2CCN(C(=O)n3ccc(C(=O)O)n3)CC2)CC1 [Example 113, 1-(4-(2-(4-carbamoylpiperidin-1-yl)-4-(trifluoromethyl)benzyl)piperazine-1-carbonyl)-1H-pyrazole-3-carboxylic acid]
[1]
  MAGL % inh. 5 mg/kg (mouse): D (% inhibition is greater than or equal to 0% and less than 25%)
[2]
  FAAH % inh. 5 mg/kg (mouse): D (% inhibition is greater than or equal to 0% and less than 25%)

## CC1CCC(C)N1c1cc(C(F)(F)F)ccc1CN1CCN(C(=O)n2ccc(C(=O)O)n2)CC1 (centres unmarked) [Example 114, 1-(4-(2-(2,5-dimethylpyrrolidin-1-yl)-4-(trifluoromethyl)benzyl)piperazine-1-carbonyl)-1H-pyrazole-3-carboxylic acid]
[1]
  MAGL % inh. 5 mg/kg (mouse): D (% inhibition is greater than or equal to 0% and less than 25%)
[2]
  FAAH % inh. 5 mg/kg (mouse): D (% inhibition is greater than or equal to 0% and less than 25%)

## O=C(O)c1ccn(C(=O)N2CC3CN(Cc4cccc(Oc5ccc(Cl)cc5)c4)CC3C2)n1 (centres unmarked) [Example 116, 1-(5-(3-(4-chlorophenoxy)benzyl)octahydro-pyrrolo[3,4-c]pyrrole-2-carbonyl)-1H-pyrazole-3-carboxylic acid]
[1]
  MAGL % inh. 5 mg/kg (mouse): D (% inhibition is greater than or equal to 0% and less than 25%)
[2]
  FAAH % inh. 5 mg/kg (mouse): D (% inhibition is greater than or equal to 0% and less than 25%)

## O=C(O)c1ccn(C(=O)N2CCN(Cc3ccc(C(F)(F)F)cc3N3C4CCC3COC4)CC2)n1 [Example 118, 1-(4-(2-(3-oxa-8-azabicyclo[3.2.1]octan-8-yl)-4-(trifluoromethyl)benzyl)piperazine-1-carbonyl)-1H-pyrazole-3-carboxylic acid]
[1]
  MAGL % inh. 5 mg/kg (mouse): D (% inhibition is greater than or equal to 0% and less than 25%)
[2]
  FAAH % inh. 5 mg/kg (mouse): D (% inhibition is greater than or equal to 0% and less than 25%)

## CC(=O)NC1CCN(c2cc(C(F)(F)F)ccc2CN2CCN(C(=O)n3ccc(C(=O)O)n3)CC2)CC1 [Example 119, 1-(4-(2-(4-acetamidopiperidin-1-yl)-4-(trifluoromethyl)benzyl)piperazine-1-carbonyl)-1H-pyrazole-3-carboxylic acid]
[1]
  MAGL % inh. 5 mg/kg (mouse): D (% inhibition is greater than or equal to 0% and less than 25%)
[2]
  FAAH % inh. 5 mg/kg (mouse): D (% inhibition is greater than or equal to 0% and less than 25%)

## O=C(O)c1ccn(C(=O)N2CCN(Cc3ccc(C(F)(F)F)cc3N3CCC(O)CC3)CC2)n1 [Example 120, 1-(4-(2-(4-hydroxypiperidin-1-yl)-4-(trifluoromethyl)benzyl)piperazine-1-carbonyl)-1H-pyrazole-3-carboxylic acid]
[1]
  MAGL % inh. 5 mg/kg (mouse): D (% inhibition is greater than or equal to 0% and less than 25%)
[2]
  FAAH % inh. 5 mg/kg (mouse): D (% inhibition is greater than or equal to 0% and less than 25%)

## O=C(O)c1ccn(C(=O)N2CCC(Oc3ccc(Cl)c(N4CCCC4)c3)CC2)n1 [Example 121, 1-(4-(4-chloro-3-(pyrrolidin-1-yl)phenoxy)piperidine-1-carbonyl)-1H-pyrazole-3-carboxylic acid]
[1]
  MAGL % inh. 5 mg/kg (mouse): D (% inhibition is greater than or equal to 0% and less than 25%)
[2]
  FAAH % inh. 5 mg/kg (mouse): D (% inhibition is greater than or equal to 0% and less than 25%)

Source: US11655217B2, “Pyrazole MAGL inhibitors” (H. Lundbeck A/S, priority 2017, dated 2023)
